Results on 20 molecules are retold here after ChEMBL document CHEMBL1148814, “Novel class of quinone-bearing polyamines as multi-target-directed ligands to combat Alzheimer's disease” (J Med Chem, 2007).

The test system of test [1] is SH-SY5Y. Put plainly: Antioxidant activity in human SHSY5Y cells overexpressing NQO1 assessed as increase in tert-butyl hydroperoxide evoked-intracellular ROS formation at 3 uM after 24 hrs relative to control. Type of test: functional.
Test [2] relates to SH-SY5Y. Put plainly: Antioxidant activity in human SHSY5Y cells overexpressing NQO1 assessed as increase in tert-butyl hydroperoxide evoked-intracellular ROS formation at 1 uM after 24 hrs relative to control. Type of test: functional.
Test [3] has as its system SH-SY5Y. Put plainly: Antioxidant activity in human SHSY5Y cells overexpressing NQO1 assessed as increase in tert-butyl hydroperoxide evoked-intracellular ROS formation at 0.3 uM after 24 hrs relative to control. Type of test: functional.
For test [4], the system named is SH-SY5Y. Put plainly: Antioxidant activity in human SHSY5Y cells overexpressing NQO1 assessed as increase in tert-butyl hydroperoxide evoked-intracellular ROS formation at 0.1 uM after 24 hrs relative to control. Type of test: functional.
For test [5], the target named is Cholinesterase (Homo sapiens, UniProt P06276).
Cholinesterase, sequence (P06276 whole entry): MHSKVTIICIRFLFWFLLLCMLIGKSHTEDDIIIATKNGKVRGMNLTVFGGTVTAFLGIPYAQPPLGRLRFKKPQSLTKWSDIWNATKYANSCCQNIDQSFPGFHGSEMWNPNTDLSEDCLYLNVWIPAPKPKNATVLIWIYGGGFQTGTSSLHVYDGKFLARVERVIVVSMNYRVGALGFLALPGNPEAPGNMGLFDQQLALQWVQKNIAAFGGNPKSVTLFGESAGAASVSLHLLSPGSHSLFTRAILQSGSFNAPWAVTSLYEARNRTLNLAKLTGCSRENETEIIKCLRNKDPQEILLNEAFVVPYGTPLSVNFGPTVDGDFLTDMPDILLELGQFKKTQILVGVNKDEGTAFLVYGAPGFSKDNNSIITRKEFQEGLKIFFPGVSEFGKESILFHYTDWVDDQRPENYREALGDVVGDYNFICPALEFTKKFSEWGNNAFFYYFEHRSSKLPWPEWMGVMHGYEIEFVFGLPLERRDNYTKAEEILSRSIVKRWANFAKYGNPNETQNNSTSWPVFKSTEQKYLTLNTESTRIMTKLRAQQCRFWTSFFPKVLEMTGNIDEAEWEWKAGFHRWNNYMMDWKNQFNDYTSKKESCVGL
Description: Inhibition of human recombinant butyrylcholinesterase
The target of test [6] is NAD(P)H dehydrogenase [quinone] 1 (Homo sapiens) (UniProt P15559). Kind of test: Activity of NQO1 enzyme.
NAD(P)H dehydrogenase [quinone] 1 (Homo sapiens), sequence (P15559 whole entry): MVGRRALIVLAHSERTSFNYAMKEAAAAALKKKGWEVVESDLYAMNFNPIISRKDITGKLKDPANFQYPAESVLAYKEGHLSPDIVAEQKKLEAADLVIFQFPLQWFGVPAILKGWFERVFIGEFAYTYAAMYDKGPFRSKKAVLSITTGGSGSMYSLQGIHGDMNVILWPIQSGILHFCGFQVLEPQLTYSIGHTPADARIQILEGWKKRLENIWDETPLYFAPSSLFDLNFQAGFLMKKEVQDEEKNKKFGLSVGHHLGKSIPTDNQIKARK
Test [7] has as its target Acetylcholinesterase (Homo sapiens, UniProt P22303).
Description: Inhibition of human recombinant acetylcholinesterase

Molecules are shown by their SMILES. Active and inactive are the calls of the source. No cut-off for these calls is given here.

In general, IC50 refers to the midpoint of a concentration-inhibition curve. Lower therefore signals greater potency in that assay.

Acetylcholinesterase, sequence (P22303 whole entry): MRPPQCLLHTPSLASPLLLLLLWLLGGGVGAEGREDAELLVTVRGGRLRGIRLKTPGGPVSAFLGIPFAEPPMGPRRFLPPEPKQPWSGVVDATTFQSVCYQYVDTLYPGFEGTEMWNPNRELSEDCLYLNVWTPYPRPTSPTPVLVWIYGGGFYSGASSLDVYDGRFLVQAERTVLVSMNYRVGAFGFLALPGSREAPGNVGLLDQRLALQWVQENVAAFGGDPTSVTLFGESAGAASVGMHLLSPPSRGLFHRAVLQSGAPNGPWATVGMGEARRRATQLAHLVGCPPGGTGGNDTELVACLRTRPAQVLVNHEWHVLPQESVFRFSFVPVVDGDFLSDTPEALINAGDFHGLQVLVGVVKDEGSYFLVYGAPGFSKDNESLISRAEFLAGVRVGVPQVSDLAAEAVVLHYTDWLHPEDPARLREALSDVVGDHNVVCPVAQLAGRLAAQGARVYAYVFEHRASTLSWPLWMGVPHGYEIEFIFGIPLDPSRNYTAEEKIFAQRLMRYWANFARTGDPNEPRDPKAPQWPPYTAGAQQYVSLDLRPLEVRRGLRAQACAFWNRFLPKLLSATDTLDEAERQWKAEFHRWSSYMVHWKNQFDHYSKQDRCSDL

As for `CCN(CCCCCCNC1=CC(=O)C(NCCCCCCN(CC)Cc2ccccc2OC)=CC1=O)Cc1ccccc1OC` [MEMOQUIN], the Activity in test [1] is recorded as 30.5%; in test [2] it was 40.25%; in test [3] it was 49.94%; in test [4] it was 53%.

Consider `CCN(CCCCCCNc1ccc(NCCCCCCN(CC)Cc2ccccc2OC)cc1)Cc1ccccc1OC`, for which the half-inhibitory concentration (IC50) was 505 nM in test [5] and 42.5 nM in test [7]. Further, the result in test [6] was inactive. Also, the Activity amounted to 49.54% in test [1], 51.35% in test [2], 50.45% in test [3] and 54.2% in test [4].

Consider `CCN(CCCCCCNC1=CC(=O)C(NCCCCCCN(CC)Cc2ccccn2)=CC1=O)Cc1ccccn1`, for which the results for the half-inhibitory concentration (IC50) in test [5] and in test [7] were 2470 nM and 125 nM, respectively.

On to `CCN(CCCCCCNC1=CC(=O)C(NCCCCCCN(CC)Cc2ccco2)=CC1=O)Cc1ccco1`, for which the IC50 in test [5] was determined as 3410 nM.

`CCN(Cc1ccccc1OC)C(=O)CCCCCNC1=CC(=O)C(NCCCCCC(=O)N(CC)Cc2ccccc2OC)=CC1=O`: the figures for the IC50 in test [5] and in test [7] were 18500 nM and 11600 nM, respectively.

Regarding `CCN(CCCCCCNC1=CC(=O)C(NCCCCCCN(CC)Cc2ccccc2C)=CC1=O)Cc1ccccc1C`, the IC50 in test [5] was 2080 nM; in test [7], 71.9 nM.

In test [5], `CCN(CCCCCCNC1=CC(=O)C(NCCCCCCN(CC)Cc2ccccc2[N+](=O)[O-])=CC1=O)Cc1ccccc1[N+](=O)[O-]` came in with an IC50 of 67100 nM.

Turning to `CCN(CCCCCCNC1=C(Br)C(=O)C(NCCCCCCN(CC)Cc2ccccc2OC)=C(Br)C1=O)Cc1ccccc1OC`, half-maximal inhibition in test [5] (IC50) was put at 696 nM. Moreover, the Activity was determined as 42.12% in test [1], 50.43% in test [2], 52.35% in test [3] and 50.51% in test [4].

In turn, `CCN(CCCNC1=CC(=O)C(NCCCN(CC)Cc2ccccc2OC)=CC1=O)Cc1ccccc1OC` yielded a concentration for half-maximal inhibition (IC50) in test [5] of 9840 nM.

Molecule `CCN(CCCCCCNC1=CC(=O)C(NCCCCCCN(CC)Cc2cccc(OC)c2)=CC1=O)Cc1cccc(OC)c1` registered an IC50 in test [5] of 1690 nM.

Consider `CCN(CCCCNC1=CC(=O)C(NCCCCN(CC)Cc2ccccc2OC)=CC1=O)Cc1ccccc1OC`, for which the values for the IC50 in test [5] and in test [7] were 12800 nM and 13.6 nM, respectively.

Take `CCN(CCCCCCNC1=CC(=O)C(NCCCCCCN(CC)Cc2ccc(OC)cc2)=CC1=O)Cc1ccc(OC)cc1`: in test [5], half-maximal inhibition (IC50) was put at 2390 nM.

For the molecule `CCN(CCCCCCNC1=CC(=O)C(NCCCCCCN(CC)Cc2cccnc2)=CC1=O)Cc1cccnc1`, the IC50 in test [5] was found to be 11900 nM; in test [7], 133 nM.

In the case of `CCN(CCCCCNC1=CC(=O)C(NCCCCCN(CC)Cc2ccccc2OC)=CC1=O)Cc1ccccc1OC`, the concentration for half-maximal inhibition (IC50) in test [5] is 3460 nM; in test [7], 2.36 nM.

As for `CCN(CCCCCCNC1=C(c2ccccc2)C(=O)C(NCCCCCCN(CC)Cc2ccccc2OC)=C(c2ccccc2)C1=O)Cc1ccccc1OC`, the values for the IC50 in test [5] and in test [7] were 2250 nM and 123 nM, respectively.

As for `CCN(CCCCCCNC1=CC(=O)C(NCCCCCCN(CC)Cc2cccs2)=CC1=O)Cc1cccs1`, the IC50 in test [5] is 2790 nM; in test [7], 60.4 nM.

Turning to `CCN(CCCCCCNC1=CC(=O)C(NCCCCCCN(CC)Cc2ccncc2)=CC1=O)Cc1ccncc1`, the 50% inhibitory concentration (IC50) amounted to 70100 nM in test [5] and 192 nM in test [7].

With `CCN(CCCCCCNC1=C(Cl)C(=O)C(NCCCCCCN(CC)Cc2ccccc2OC)=C(Cl)C1=O)Cc1ccccc1OC`, the half-maximal inhibitory concentration (IC50) in test [5] amounted to 800 nM; in test [7], 3.05 nM.

With `COc1ccccc1CN(CCCCCCNC1=CC(=O)C(NCCCCCCN(Cc2ccccc2OC)C(C)C)=CC1=O)C(C)C`, the half-maximal inhibitory concentration (IC50) was found to be 660 nM in test [5] and 12.9 nM in test [7].

Turning to `CCN(CCCCCCNC1=CC(=O)C(NCCCCCCN(CC)CCc2ccccc2OC)=CC1=O)CCc1ccccc1OC`, the IC50 in test [5] turned out to be 518 nM; in test [7] it was 17.3 nM.
